From patent publication US9709557B2, “Anthraquinone based near IR emitting compounds and uses thereof” (LIFE TECHNOLOGIES CORPORATION, priority 2008, dated 2017)

Key:
Live Jurkat cells [1] = test: DNA staining of live cells, 15 minute incubation (Example 46); type: cell-based, human; conditions: 2.5, 5, 10 μM, 37° C., 15 min; 488 and 633 nm lasers, 695/40
Method: Compound 9 is diluted as a 5 mM concentration in DMSO. Live Jurkat cells are suspended at 5×10^5 cells/ml in RPMI media with 10% Fetal Bovine Serum (FBS). Compound 9 was is added to each of one mL cell suspensions at concentrations 2.5 μM, 5 μM, 10 μM and then incubated at 37° C. for 15 minutes while protected from light. Cells are run through the Becton Dickinson (BD) LSRII Flow Cytometer. Forward Scatter (FS) vs Side Scatter (SS) dual parameter plot is used to gate main cell population. Fluorescence is collected using two lasers: the 488 nm excitation laser with 695/40 bandpass emission filter, and using the 633 nm excitation laser with 695/40 bandpass emission filter. Collection of 10,000 events gated on the main population of cells was performed using a flow rate of ˜200 events/second. […] A typical DNA cell cycle histogram was generated, showing G0/G1 phase, S phase, and G2/M phase, as obtained on the live cell gate, with all concentrations of the compound.

Live Jurkat cells [2] = test: DNA staining of live cells and DNA content cell cycle analysis using flow cytometry (Example 36); type: cell-based, human; conditions: for G2/G1 ratio: 30 min
Method: Live Jurkat cells are suspended at 5×10^5 cells/ml in each RPMI media with 10% Fetal Bovine Serum (FBS) and Hanks Balanced Salt Solution (HBSS). A compound (e.g., Compound 9 or a salt thereof) is added to each of one mL cell suspensions at concentrations 1 μM, 5 μM, 10 μM, and 20 μM, and then incubated at 37° C. or room temperature for 30 minutes while protected from light. Cells are run through a Becton Dickinson (BD) LSRII Flow Cytometer. Forward Scatter (FS) versus Side Scatter (SS) dual parameter plot is used to gate main cell population. Fluorescence is collected using three lasers: 488 nm excitation laser with 670/14, 720/20 and 787/42 bandpass emission filter, 532 nm excitation laser with 585/42 and 780/60 bandpass emission filters, and 633 nm excitation laser with 695/40, and 787/42 bandpass emission filters. Collection of at least 10,000 events at flow rate of ˜200 events/second. The data is further analyzed using MODFIT LT Flow Cytometry Modeling Software from Verity Software House, Inc. to evaluate the ratio of G2/G1 and the % CV of G1 phase.
DNA content analysis in living cells is expected to produce variable results. Depending on the cell type, the % CV of the mean DNA content of a uniform cell population may vary from between 5%-10%. Although there is no formal consensus regarding the acceptable maximal CV value for the mean DNA content of the G0G1 phase, the % CV of normal diploid cells in a histogram generally is <8%. The CV of a tumor may be higher due to the presence of multiple tumor subpopulations. However, tumor CVs of <8% are recommended for useful S-Phase determinations (Cytometry, Vol. 14 (5), 1993, page 474).
Linearity is the observed ratio between the DNA Diploid G2M and G0G1 positions. The ratio normally is about two, but this ratio may deviate from the ideal value even under normal conditions (see, MODFIT LT User Guide, June 2000).

Live Jurkat cells [3] = test: Comparison of DNA stains on cell viability (Example 44); type: cell-based; conditions: human, 72 h, 5 μM
Method: Live Jurkat cells are suspended at 5×10^5 cells/ml in complete RPMI media with 10% FBS. Four aliquots of 10 ml each of the cell suspension are made. A final concentration of 5 μM Hoechst 33342 (Invitrogen Corporation) is added to one aliquot, a final concentration of 5 μM DRAQ5 (Biostatus Limited, UK) is added to one aliquot, a final concentration of 5 μM Compound 9 is added to one aliquot, and one aliquot remains untreated as a control. All four aliquots are placed in a 37° C. waterbath for 30 minutes in protected from light. After the incubation, all cell suspensions are centrifuged, the cells are pelleted and the supernatant discarded. To each aliquot, 5 ml media is added. Four culture flasks are prepared by adding 35 ml media to each. One 5 ml aliquot of cells is added to one flask for each on the four cell suspensions aliquots. The flasks are placed in a 37° C. incubator with 5% CO2 in the dark for 72 hours. Each flask of cells is then gently mixed and cell suspension is removed for testing. The cell concentration and image is performed using the Cellometer instrument from Nexcelom. Percentage and absolute cell counts of live and dead cells for each treatment are determined using the LIVE/DEAD Viability/Cytotoxicity Kit (Invitrogen Corporation, Carlsbad, Calif.) with COUNTBRIGHT Absolute Counting Beads (Invitrogen Corporation). This involves adding one ml cell suspension to a 12×75 mm test tube and adding 2 μl of a 50 μM calcein AM solution to identify living cells and 4 μl of a 2 mM ethidium homodimer-1 solution to identify dead cells. The cell suspension is mixed and incubated for 20 minutes at room temperature protected from light. After the end of the incubation, 50 μl of well mixed COUNTBRIGHT absolute counting beads are added to each test tube. Each sample is run through the Becton Dickinson (BD) LSRII Flow Cytometer. Forward Scatter (FS) versus Side Scatter (SS) dual parameter plot is used to gate main cell population, and a separate gate is made around the bead population. Fluorescence is collected using 488 nm excitation laser with 530/30 bandpass and 610/20 bandpass emission filters. Markers on a dual parameter plot of calcein fluorescence versus ethidium homodimer-1 fluorescence is used to obtain percent of cells which are living and dead, as well as number of cell events recorded. By using the COUNTBRIGHT absolute counting beads assay, the absolute number of living and dead cells is calculated by using the equation: A/B×C/D=concentration of cells/μL (A=number of cell events, B=number of bead events, C=assigned bead count, D=volume of the sample in μl).

Live Jurkat cells [4] = test: DNA staining of live cells treated with RNase (Example 37); type: cell-based, human; conditions: 5 μM and 10 μM, 37° C. or room temperature, 30 min
Method: Live Jurkat cells (human T-lymphocyte) were stained with Compound 9 with and without RNase treatment to assess DNA selectivity of the compound. Live Jurkat cells were suspended at 5×10^5 cells/ml in each RPMI media with 10% FBS. The dye was added to each of one mL cell suspensions at concentrations 5 μM and 10 μM. Duplicate conditions (dye concentration and incubation temperature) were tested. RNase was added to one test and incubated along with the dye. The other test was left untreated (no RNase present). The samples were incubated at 37° C. or room temperature for 30 minutes while protected from light. Cells were run through a Becton Dickinson (BD) LSRII Flow Cytometer, as described in Example 36.

## CN(C)CCNC(=O)CNc1ccc(O)c2c1C(=O)c1c(O)ccc(N)c1C2=O [Compound 9]
Live Jurkat cells [1]
  DNA content cell cycle staining: demonstrated staining for DNA content cell cycle
Live Jurkat cells [2]; 1 μM, RPMI media, 37° C.
  G2/G1 ratio: 1.91
Live Jurkat cells [2]; 5 μM, RPMI media, 37° C.
  G2/G1 ratio: 1.83
Live Jurkat cells [2]; 10 μM, HBSS buffer, 37° C.
  G2/G1 ratio: 1.84
Live Jurkat cells [2]; 10 μM, HBSS buffer, room temperature
  G2/G1 ratio: 1.83
Live Jurkat cells [2]; 10 μM, RPMI media, 37° C.
  G2/G1 ratio: 1.82
Live Jurkat cells [2]; 10 μM, RPMI media, room temperature
  G2/G1 ratio: 1.82
Live Jurkat cells [2]; 20 μM, RPMI media, 37° C.
  G2/G1 ratio: 1.87
Live Jurkat cells [2]; all concentrations (1-20 μM), media and HBSS, 37° C. and room temperature, MODFIT
  % CV of G1-phase: < 8%
Live Jurkat cells [2]; all concentrations, MODFIT analysis
  G2/G1 ratios (linearity): indicating linearity of staining
Live Jurkat cells [2]; excited by 488, 532 and 633 nm lasers
  DNA staining of live cells: effective stain for DNA
Live Jurkat cells [3]
  % Dead Cells: 26.4%
  % Living Cells: 71.2%
  Cell Count (Cellometer): 2.54 × 10^5 cells/mL
  Cell Count (Flow Cytommetry): 0.7 × 10^5 cells/mL
Live Jurkat cells [4]
  DNA selectivity, staining with and without RNase: DNA selective
